The values that follow come from patent publication US6136781A, “LH-RH receptor antagonists” (Takeda Chemical Industries, Ltd., priority 1995, dated 2000).

Read-outs that look alike come from different tables or passages of the source.

For this data set the following is noted: amide bond, 15-membered ring, DMF.
The mark [1] stands for this setting: DIEA (active ester), 0.88 mM, 4 steps.
Setting [2] is: ONB active ester/DIEA, 1.06 mM, 5 steps.

For the setting “from H-Trp-Ala-dArg(Tos)-Phe-dAla-OH, PyBOP/DIEA, 25.0 °C, 2 steps”, `Cc1ccc(S(=O)(=O)NC(=N)NCCC[C@H]2NC(=O)[C@H](C)NC(=O)[C@H](Cc3c[nH]c4ccccc34)NC(=O)[C@@H](C)NC(=O)[C@H](Cc3ccccc3)NC2=O)cc1` [cyclo(-Ala-D-Arg(Tos)-Phe-D-Ala-Trp-)] had a ring closure, yield after HPLC of 21.8%.
In the case of `Cc1ccc(S(=O)(=O)NC(=N)NCCC[C@@H]2NC(=O)[C@H](Cc3ccccc3)NC(=O)[C@H](Cc3c[nH]c4ccccc34)NC(=O)[C@@H](C)NC(=O)[C@H](Cc3ccccc3)NC2=O)cc1` [cyclo(-Phe-Arg(Tos)-Phe-D-Ala-Trp-)], the ring closure, yield after HPLC (from H-Trp-Phe-Arg(Tos)-Phe-dAla-OH, PyBOP/DIEA, 25.0 °C, 2 steps) amounted to 71.5%.
`COc1cc(C)c(S(=O)(=O)NC(=N)NCCC[C@H]2NC(=O)[C@H](Cc3ccccc3)NC(=O)[C@H](Cc3c[nH]c4ccccc34)NC(=O)[C@@H](C)NC(=O)[C@H](Cc3ccccc3)NC2=O)c(C)c1C` [cyclo(-Phe-D-Arg(Mtr)-Phe-D-Ala-Trp-)]: the ring closure, yield after HPLC (from H-dAla-Trp-Phe-dArg(Mtr)-Phe-OH, PyBOP/DIEA, 1.0 mM, 25.0 °C, 2 steps) was 5.8%.
For the molecule `Cc1ccc(S(=O)(=O)NC(=N)NCCC[C@H]2NC(=O)[C@H](Cc3ccccc3)NC(=O)[C@H](Cc3c[nH]c4ccccc34)NC(=O)[C@@H](C)NC(=O)[C@H](Cc3ccc4ccccc4c3)NC2=O)cc1` [cyclo(-Phe-D-Arg(Tos)-Nal(2)-D-Ala-Trp-)], the ring closure, yield after HPLC (from H-Trp-Phe-dArg(Tos)-Nal(2)-dAla-OH, PyBOP/DIEA, 25.0 °C, 2 steps) came out at 15.5%.
On to `Cc1ccc(S(=O)(=O)NC(=N)NCCC[C@H]2NC(=O)[C@H](Cc3ccccc3)NC(=O)[C@H](Cc3c[nH]c4ccccc34)NC(=O)[C@@H](C)NC(=O)[C@H](Cc3ccccc3)NC2=O)cc1` [cyclo(-Phe-D-Arg(Tos)-Phe-D-Ala-Trp-)], for which the ring closure, yield after HPLC (from H-Trp-Phe-dArg(Tos)-Phe-dAla-OH, PyBOP/DIEA, 25.0 °C, 2 steps) was 10.8%.
`Cc1ccc(S(=O)(=O)NC(=N)NCCC[C@H]2NC(=O)[C@H](Cc3ccccc3)NC(=O)[C@H](Cc3c[nH]c4ccccc34)NC(=O)[C@@H](CC(C)C)NC(=O)[C@H](Cc3ccccc3)NC2=O)cc1` [cyclo(-Phe-D-Arg(Tos)-Phe-D-Leu-Trp-)] showed a ring closure, yield after HPLC (from H-dLeu-Trp-Phe-dArg(Tos)-Phe-OH, PyBOP/DIEA, 25.0 °C, 2 steps) of 29.4%.
`Cc1ccc(S(=O)(=O)NC(=N)NCCC[C@H]2NC(=O)[C@H](Cc3ccccc3)NC(=O)[C@H](Cc3c[nH]c4ccccc34)NC(=O)[C@@H](C)NC(=O)[C@H](Cc3ccc(Cl)cc3)NC2=O)cc1` [cyclo(-Phe-D-Arg(Tos)-pClPhe-D-Ala-Trp-)] registered a ring closure, yield after HPLC (from H-Trp-Phe-dArg(Tos)-pClPhe-dAla-OH, PyBOP/DIEA, 25.0 °C, 2 steps) of 50.5%.
The molecule `Cc1ccc(S(=O)(=O)NC(=N)NCCC[C@H]2NC(=O)[C@H](Cc3ccccc3)NC(=O)[C@H](Cc3c[nH]c4ccccc34)NC(=O)[C@@H](C)NC(=O)[C@H](Cc3ccc(F)cc3)NC2=O)cc1` [cyclo(-Phe-D-Arg(Tos)-pFPhe-D-Ala-Trp-)] showed a ring closure, yield after HPLC (from H-Trp-Phe-dArg(Tos)-pFPhe-dAla-OH, PyBOP/DIEA, 25.0 °C, 2 steps) of 65.6%.
`Cc1ccc(S(=O)(=O)NC(=N)NCCC[C@H]2NC(=O)[C@H](c3ccccc3)NC(=O)[C@H](Cc3ccccc3)NC(=O)[C@@H](C)NC(=O)[C@H](Cc3ccccc3)NC2=O)cc1` [cyclo(-Phg-D-Arg(Tos)-Phe-D-Ala-Phe-)] registered a ring closure, yield after HPLC (from H-Phe-Phg-dArg(Tos)-Phe-dAla-OH, PyBOP/DIEA, 25.0 °C, 2 steps) of 13.1%.
`Cc1ccc(S(=O)(=O)NC(=N)NCCC[C@H]2NC(=O)[C@H](c3ccccc3)NC(=O)[C@H](Cc3c[nH]c4ccccc34)NC(=O)[C@@H](C)NC(=O)[C@H](Cc3ccccc3)NC2=O)cc1` [cyclo(-Phg-D-Arg(Tos)-Phe-D-Ala-Trp-)]: the ring closure, yield after HPLC (from H-dAla-Trp-Phg-dArg(Tos)-Phe-OH, PyBOP/DIEA, 25.0 °C, 2 steps) amounted to 28.3%.
`Cc1ccc(S(=O)(=O)NC(=N)NCCC[C@H]2NC(=O)[C@H](c3ccccc3)NC(=O)[C@H](Cc3c[nH]c4ccccc34)NC(=O)[C@@H](CO)NC(=O)[C@H](Cc3ccccc3)NC2=O)cc1` [cyclo(-Phg-D-Arg(Tos)-Phe-D-Ser-Trp-)] registered a ring closure, yield after HPLC (from H-dSer-Trp-Phg-dArg(Tos)-Phe-OH, PyBOP/DIEA, 25.0 °C, 2 steps) of 15.7%.
For the molecule `Cc1ccc(S(=O)(=O)NC(=N)NCCC[C@H]2NC(=O)[C@H](Cc3ccc(Cl)cc3)NC(=O)[C@H](Cc3c[nH]c4ccccc34)NC(=O)[C@@H](C)NC(=O)[C@H](Cc3ccccc3)NC2=O)cc1` [cyclo(-pClPhe-D-Arg(Tos)-Phe-D-Ala-Trp-)], the ring closure, yield after HPLC (from H-Trp-pClPhe-dArg(Tos)-Phe-dAla-OH, PyBOP/DIEA, 25.0 °C, 2 steps) was 7.5%.
Molecule `Cc1ccc(S(=O)(=O)NC(=N)NCCC[C@H]2NC(=O)[C@H](Cc3ccc(F)cc3)NC(=O)[C@H](Cc3c[nH]c4ccccc34)NC(=O)[C@@H](C)NC(=O)[C@H](Cc3ccccc3)NC2=O)cc1` [cyclo(-pFPhe-D-Arg(Tos)-Phe-D-Ala-Trp-)] displayed a ring closure, yield after HPLC (from H-Trp-pFPhe-dArg(Tos)-Phe-dAla-OH, PyBOP/DIEA, 25.0 °C, 2 steps) of 58.8%.
For the molecule “cyclo (-Arg-D-Lys (COCH2 CH2 CH2 CH2 CH2 Ph)-Tyr-D-Trp-Leu-)”, the ring closure, yield after HPLC (DIEA (active ester), 3.12 mM, 5 steps) came to 26.8%.
Consider “cyclo(-Arg-D-Glu((2)-MeOPhp)-Tyr-D-Trp-Leu-)”, for which the ring closure, yield after HPLC (DIEA (active ester), 1.07 mM, 4 steps) is 9.2%.
“cyclo(-Arg-D-Glu((2)-Pyp)-Tyr-D-Trp-Leu-)” registered a ring closure, yield after HPLC (DIEA (active ester), 1.1 mM, 4 steps) of 12.1%.
With “cyclo(-Arg-D-Glu((4)-MeOPhp)-Tyr-D-Trp-Leu-)”, the ring closure, yield after HPLC (DIEA (active ester), 1.07 mM, 5 steps) was found to be 24.4%.
cyclo(-Arg-D-Glu(Bzlp)-Tyr-D-Trp-Leu-): the ring closure, yield after HPLC (DIEA (active ester), 1.09 mM, 4 steps) was determined as 21.6%.
For the molecule “cyclo(-Arg-D-Glu(NHCH2 CH2 Ph)-Asp (NHCH2 Ph)-D-Trp-Leu-)”, the ring closure, yield after HPLC (DIEA (active ester), 2.67 mM, 5 steps) was 6.72%.
As to “cyclo(-Arg-D-Glu(NHCH2 CH2 Ph)-Lys(COPh)-D-Trp-Leu-)”, the ring closure, yield after HPLC (DIEA (active ester), 3.63 mM, 5 steps) amounted to 57.6%.
Molecule “cyclo(-Arg-D-Glu(NHCH2 CH2 Ph)-Lys(COPh)-D-Trp-Phe-)” came in with a ring closure, yield after HPLC (ONB active ester/DIEA, 1.28 mM, 5 steps) of 5.7%.
Take “cyclo(-Arg-D-Glu(NHCH2 CH2 Ph)-Lys(COPh)-D-Trp-Trp-)”: the ring closure, yield after HPLC (ONB active ester/DIEA, 0.93 mM, 5 steps) was found to be 13.9%.
The molecule “cyclo(-Arg-D-Glu(NHCH2 CH2 Ph)-Tyr-D-Trp-Leu-)” showed a ring closure, yield after HPLC (DIEA (active ester), 0.9 mM, 4 steps) of 30.9%.
“cyclo(-Arg-D-Glu(NHCH2 CH2 Ph)-Tyr-D-Trp-Phe-)” showed a ring closure, yield after HPLC (ONB active ester/DIEA, 1.08 mM, 5 steps) of 37%.
Take “cyclo(-Arg-D-Glu(NHCH2 CH2 Ph)-Tyr-D-Trp-Trp-)”: for the setting “ONB active ester/DIEA, 1.33 mM, 5 steps”, the ring closure, yield after HPLC was found to be 14.8%.
Under setting [1], “cyclo(-Arg-D-Glu(NHCH2 Nap(1))-Tyr-D-Trp-Leu-)” gave a ring closure, yield after HPLC of 56.7%.
Regarding “cyclo(-Arg-D-Glu(NHCH2 Ph)-Tyr-D-Trp-Leu-)”, the ring closure, yield after HPLC (DIEA (active ester), 0.91 mM, 4 steps) came out at 27.1%.
As for “cyclo(-Arg-D-Glu(NHCHPh2)-Tyr-D-Trp-Leu-)”, for the setting “DIEA (active ester), 0.86 mM, 4 steps”, the ring closure, yield after HPLC is 26.1%.
The molecule cyclo(-Arg-D-Glu(Php)-Tyr-D-Trp-Leu-) gave a ring closure, yield after HPLC under setting [1] of 71.7%.
Under “ONB active ester/DIEA, 1.36 mM, 5 steps”, cyclo(-Arg-D-Lys(Ac)-Tyr-D-Trp-Leu-) gave a ring closure, yield after HPLC of 23.9%.
In the case of “cyclo(-Arg-D-Lys(COCH2 CH2 CH2 Ph)-Tyr-D-Trp-Leu-)”, for the setting “DIEA (active ester), 3.18 mM, 5 steps”, the ring closure, yield after HPLC was determined as 28.7%.
In turn, “cyclo(-Arg-D-Lys(COCH2 Ph)-Tyr-D-Trp-Leu-)” showed a ring closure, yield after HPLC (ONB active ester/DIEA, 0.89 mM, 5 steps) of 30.6%.
As to cyclo(-Arg-D-Lys(CoPh)-Tyr-D-Trp-Leu-), the ring closure, yield after HPLC (ONB active ester/DIEA, 2.62 mM, 5 steps) was 32.7%.
Under setting [2], “cyclo(-Arg-D-Lys(SO2 Nap(1))-Tyr-D-Trp-Leu-)” yielded a ring closure, yield after HPLC of 30%.
On to “cyclo(-Arg-D-Lys(SO2 Nap(2))-Trp-D-Trp-Leu-)”, for which the ring closure, yield after HPLC (HONB/DCC preactivation, DIEA, 2.47 mM, 5 steps) came out at 27.1%.
In turn, cyclo(-Arg-D-Lys-Tyr-D-Trp-Leu-) had a ring closure, yield after HPLC (HONB/DCC preactivation, DIEA, 0.94 mM, 5 steps) of 11.7%.
For the setting “HONB/DCC preactivation, DIEA, 1.01 mM, 5 steps”, cyclo(-Arg-D-Trp-Tyr-D-Trp-Leu-) showed a ring closure, yield after HPLC of 11.5%.
For the setting “DIEA (active ester), 1.1 mM, 5 steps”, cyclo(-Arg-Glu(Php)-Tyr-D-Trp-Leu-) returned a ring closure, yield after HPLC of 22.7%.
As to “cyclo(-Arg-Lys(SO2 Nap(2))-Tyr-D-Trp-Leu-)”, the ring closure, yield after HPLC under setting [2] was 48.3%.
Turning to “cyclo(-D-Leu-Lys(SO2 Nap(1))-D-Tyr-Arg-D-Trp-)”, the ring closure, yield after HPLC (ONB active ester/DIEA, 3.3 mM, 5 steps) stood at 52.2%.
